Measured values: PubChem BioAssay AID1259407 (Chemical Carcinogenesis Research Information System (CCRIS), 2018)
The source made the active and inactive calls. How the calls were made is not given here.

Tested on: CCRIS mutagenicity, Ames/micronucleus/aberration tests
Test: CCRIS mutagenicity studies
[1] = Test System: AMES SALMONELLA TYPHIMURIUM, Strain/Indicator: TA98, Metabolic Activation: NONE, Method: STANDARD PLATE
[2] = Test System: AMES SALMONELLA TYPHIMURIUM, Strain/Indicator: TA98, Metabolic Activation: RAT, LIVER, S-9, AROCLOR 1254, Method: STANDARD PLATE
[3] = Test System: AMES SALMONELLA TYPHIMURIUM, Strain/Indicator: TA100, Metabolic Activation: NONE, Method: STANDARD PLATE
[4] = Test System: AMES SALMONELLA TYPHIMURIUM, Strain/Indicator: TA100, Metabolic Activation: RAT, LIVER, S-9, AROCLOR 1254, Method: STANDARD PLATE
[5] = Test System: AMES SALMONELLA TYPHIMURIUM, Strain/Indicator: TA1535, Metabolic Activation: NONE, Method: STANDARD PLATE
[6] = Test System: AMES SALMONELLA TYPHIMURIUM, Strain/Indicator: TA1535, Metabolic Activation: RAT, LIVER, S-9, AROCLOR 1254, Method: STANDARD PLATE
[7] = Test System: AMES SALMONELLA TYPHIMURIUM, Strain/Indicator: TA1537, Metabolic Activation: NONE, Method: STANDARD PLATE
[8] = Test System: AMES SALMONELLA TYPHIMURIUM, Strain/Indicator: TA1537, Metabolic Activation: RAT, LIVER, S-9, AROCLOR 1254, Method: STANDARD PLATE

For `Clc1ccc(-c2ccccc2)cc1`, the mutagenic call (End Point: In vitro micronucleus, Test System: Chinese hamster lung fibroblasts (V79 cells), Metabolic Activation: None) was “inactive; negative”, the mutagenic call (End Point: In vivo mutagenicity, Test System: Lung, Species: Rat, Strain/Sex: Big Blue/male, Route: Intraperitoneal) was “inactive; negative (2-fold increase in mutant frequency for 4-chlorobiphenyl and its metab” and the mutagenic call (Test System: Chinese hamster lung fibroblasts, Strain/Indicator: V79 (HPRT)/6-thioguanine, Metabolic Activation: None, Method: Standard plate) was “inactive; negative. study examines mutagenicity of metabolites synthesized in lab and iden”.

In the case of `O=Nn1cc(CC(O)C(=O)O)c2ccccc21` (stereo not given), the mutagenic call [1] is reported as “active; positive”.

In the case of `CN(C)S(=O)(=O)N(SC(F)(Cl)Cl)c1ccccc1`, the mutagenic call (Test System: AMES SALMONELLA TYPHIMURIUM, Strain/Indicator: TA102, Metabolic Activation: NONE, Method: STANDARD PLATE) is reported as “inactive; negative”, the mutagenic call (Test System: AMES SALMONELLA TYPHIMURIUM, Strain/Indicator: TA102, Metabolic Activation: RAT, LIVER, S-9, PHENOBARBITAL, Method: STANDARD PLATE) is reported as “inactive; negative” and the mutagenic call (Test System: AMES SALMONELLA TYPHIMURIUM, Strain/Indicator: TA104, Metabolic Activation: NONE, Method: STANDARD PLATE) is reported as “inactive; negative”. For the same compound, the mutagenic call (Test System: AMES SALMONELLA TYPHIMURIUM, Strain/Indicator: TA104, Metabolic Activation: RAT, LIVER, S-9, PHENOBARBITAL, Method: STANDARD PLATE) was “inactive; negative”, the mutagenic call (Test System: E. COLI, Strain/Indicator: WP2HCR, Metabolic Activation: NONE, Method: STANDARD PLATE) was “active; positive” and the mutagenic call (Test System: E. COLI, Strain/Indicator: WP2HCR, Metabolic Activation: S-9 MIX, Method: STANDARD PLATE) was “inactive; negative”.

`CC(C)(C)NC[C@H](O)COc1nsnc1N1CCOCC1` was tested, and the mutagenic call [1] was “inactive; negative”, the mutagenic call [2] was “inactive; negative” and the mutagenic call [3] was “inactive; negative”. For the same compound, the mutagenic call [4] was “inactive; negative”.

With `CNCCC=C1c2ccccc2CCc2ccccc21` the mutagenic call [1] was “inactive; negative”, the mutagenic call [2] was “inactive; negative” and the mutagenic call [3] was “inactive; negative”. For the same compound, the mutagenic call [4] was “inactive; negative”, the mutagenic call [5] was “inactive; negative” and the mutagenic call [6] was “inactive; negative”. The mutagenic call [7] was “inactive; negative” and the mutagenic call [8] was “inactive; negative”.

`Cc1ccc2c(C)c3ccc4c(c3nc2c1)C=C[C@H](O)[C@H]4O` was tested, and the mutagenic call [4] was “active; positive”.

For `Cc1ccc(NO)c(C)c1`, the mutagenic call (Test System: AMES SALMONELLA TYPHIMURIUM, Strain/Indicator: TA100, Metabolic Activation: NONE, Method: PREINCUBATION) was “active; positive” and the mutagenic call (Test System: AMES SALMONELLA TYPHIMURIUM, Strain/Indicator: TA100, Metabolic Activation: RAT, LIVER, S-9, PCB, Method: PREINCUBATION) was “active; positive”.

`CCOC(=O)C1C(C=C(C)C)C1(C)C` (stereo not given) was tested, and the mutagenic call [1] was “inactive; negative”, the mutagenic call [2] was “inactive; negative” and the mutagenic call [3] was “inactive; negative”. For the same compound, the mutagenic call [4] was “inactive; negative”, the mutagenic call [5] was “inactive; negative” and the mutagenic call [6] was “inactive; negative”. The mutagenic call [7] was “inactive; negative”, the mutagenic call [8] was “inactive; negative” and the mutagenic call (Test System: E. COLI, Strain/Indicator: WP2, Metabolic Activation: NONE, Method: STANDARD PLATE) was “inactive; negative”. The mutagenic call (Test System: E. COLI, Strain/Indicator: WP2, Metabolic Activation: RAT, LIVER, S-9, AROCLOR 1254, Method: STANDARD PLATE) was “inactive; negative”.
